The source of these data is patent publication US20040175691A1, “Use of the KCNQ2 and KCNQ3 genes for the discovery of agents useful in the treatment of neurological disorders” (priority 1998, published 2004).

The target in assay [1] is T1, eag1 (Rattus norvegicus, UniProt Q63472).
T1 construct: expressed in transfected cells; host or cells: oocytes (Xenopus)
T1 sequence (Q63472 1-962): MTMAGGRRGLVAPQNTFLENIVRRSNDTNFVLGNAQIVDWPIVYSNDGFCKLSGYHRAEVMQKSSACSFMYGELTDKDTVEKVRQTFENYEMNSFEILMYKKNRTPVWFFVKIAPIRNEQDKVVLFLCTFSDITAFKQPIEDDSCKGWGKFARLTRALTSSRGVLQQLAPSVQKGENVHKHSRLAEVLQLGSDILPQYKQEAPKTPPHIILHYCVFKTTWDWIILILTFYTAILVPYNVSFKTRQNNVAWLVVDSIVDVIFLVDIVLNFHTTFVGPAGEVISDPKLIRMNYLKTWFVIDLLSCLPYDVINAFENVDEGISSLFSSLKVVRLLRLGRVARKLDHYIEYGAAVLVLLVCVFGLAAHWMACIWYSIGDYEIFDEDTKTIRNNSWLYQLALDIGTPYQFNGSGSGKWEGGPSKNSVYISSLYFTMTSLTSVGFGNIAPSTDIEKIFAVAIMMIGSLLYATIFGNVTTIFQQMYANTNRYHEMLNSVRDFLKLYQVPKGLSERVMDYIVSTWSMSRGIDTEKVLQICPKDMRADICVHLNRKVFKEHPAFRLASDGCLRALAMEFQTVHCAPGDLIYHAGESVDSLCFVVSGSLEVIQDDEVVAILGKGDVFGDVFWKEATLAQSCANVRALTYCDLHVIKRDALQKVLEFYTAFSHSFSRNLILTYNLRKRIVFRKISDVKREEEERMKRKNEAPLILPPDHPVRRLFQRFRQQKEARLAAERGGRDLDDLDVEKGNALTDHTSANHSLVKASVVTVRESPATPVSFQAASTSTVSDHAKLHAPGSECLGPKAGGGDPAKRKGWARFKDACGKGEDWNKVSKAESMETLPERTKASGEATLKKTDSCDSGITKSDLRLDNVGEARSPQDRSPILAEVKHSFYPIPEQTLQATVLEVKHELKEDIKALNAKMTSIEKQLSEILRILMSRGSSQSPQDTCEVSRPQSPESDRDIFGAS
In words: Blockade of cloned eag1 channel in oocytes. In kind it is cell-based. The settings on record: mean±s.e.m., blockade incomplete.

For assay [2], the target named is T2, erg1 (Rattus norvegicus, UniProt O08962).
T2 construct: expressed in transfected cells; host or cells: oocytes (Xenopus)
T2 sequence (O08962 1-1163): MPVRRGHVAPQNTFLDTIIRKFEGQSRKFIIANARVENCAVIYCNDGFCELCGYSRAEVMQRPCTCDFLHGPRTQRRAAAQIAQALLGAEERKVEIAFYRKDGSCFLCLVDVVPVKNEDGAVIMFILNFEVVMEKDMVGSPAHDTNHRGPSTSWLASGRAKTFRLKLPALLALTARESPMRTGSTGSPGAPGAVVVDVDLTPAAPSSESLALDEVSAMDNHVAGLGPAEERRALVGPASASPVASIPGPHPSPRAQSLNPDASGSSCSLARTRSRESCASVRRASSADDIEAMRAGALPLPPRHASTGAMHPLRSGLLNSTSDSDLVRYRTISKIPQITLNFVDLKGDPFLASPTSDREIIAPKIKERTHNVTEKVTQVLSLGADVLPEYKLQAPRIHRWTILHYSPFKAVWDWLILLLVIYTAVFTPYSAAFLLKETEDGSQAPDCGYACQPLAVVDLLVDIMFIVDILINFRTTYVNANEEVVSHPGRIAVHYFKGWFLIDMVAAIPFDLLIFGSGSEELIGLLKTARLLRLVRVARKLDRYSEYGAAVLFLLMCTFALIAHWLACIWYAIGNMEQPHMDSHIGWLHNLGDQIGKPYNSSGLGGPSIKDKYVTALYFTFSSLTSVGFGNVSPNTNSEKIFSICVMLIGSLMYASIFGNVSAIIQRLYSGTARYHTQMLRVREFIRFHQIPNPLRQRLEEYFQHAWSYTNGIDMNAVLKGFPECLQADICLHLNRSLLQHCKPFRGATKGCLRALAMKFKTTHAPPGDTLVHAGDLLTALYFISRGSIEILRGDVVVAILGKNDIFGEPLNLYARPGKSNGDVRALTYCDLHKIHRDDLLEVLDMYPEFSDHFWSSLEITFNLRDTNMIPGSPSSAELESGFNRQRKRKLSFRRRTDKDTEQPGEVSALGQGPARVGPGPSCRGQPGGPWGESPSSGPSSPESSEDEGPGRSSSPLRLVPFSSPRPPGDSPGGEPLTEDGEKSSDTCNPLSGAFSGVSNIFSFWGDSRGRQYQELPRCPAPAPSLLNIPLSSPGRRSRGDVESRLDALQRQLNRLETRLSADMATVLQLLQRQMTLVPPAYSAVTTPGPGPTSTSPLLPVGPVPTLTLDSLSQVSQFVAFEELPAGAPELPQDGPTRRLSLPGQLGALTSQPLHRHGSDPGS
Kind of assay: Blockade of cloned erg1 channel in oocytes. In kind it is cell-based. The settings on record: mean±s.e.m.

Some results are limits rather than exact numbers.

As usually defined, the IC50 is the midpoint of a concentration-inhibition curve. A lower IC50 goes with greater potency. Take `O=C1N(c2ccccc2)c2ccccc2C1(Cc1ccncc1)Cc1ccncc1` [Linopirdine, 3,3-bis(4-pyridinylmethyl)-1-phenylindolin-2-one]: the IC50 in assay [1] stood at 31 ± 3 µM; in assay [2], 53 ± 4 µM.

For the compound `O=C1c2ccccc2C(Cc2ccncc2)(Cc2ccncc2)c2ccccc21` [XE991, 10,10-bis(4-pyridinylmethyl)-9(10H)-anthracenone], the IC50 is 49 ± 6 µM in assay [1] and more than 100 µM in assay [2].
